ChEMBL document CHEMBL3769391, “Identification of a new cyathane diterpene that induces mitochondrial and autophagy-dependent apoptosis and shows a potent in vivo anti-colorectal cancer activity” (Eur J Med Chem, 2016)
Activity calls are given as the source filed them. The rule behind the calls is not given here.

Experiments:
[1] = test system: HCT-116; assay: Induction of apoptosis in Bax deficient human HCT116 cells assessed as late apoptotic cells at 15 uM after 24 hrs by Annexin V-FITC/propidium iodide staining based flow cytometry (reference value: 1.5 to 1.56%); type: functional
[2] = test system: HCT-116; assay: Induction of apoptosis in Bax deficient human HCT116 cells assessed as early apoptotic cells at 15 uM after 24 hrs by Annexin V-FITC/propidium iodide staining based flow cytometry (reference value: 0.85 to 1.13%); type: functional
[3] = test system: HCT-116; assay: Induction of apoptosis in human HCT116 cells assessed as viable cells at 5 uM after 24 hrs by Annexin V-FITC/propidium iodide staining based flow cytometry (reference value: 93.64%); type: functional; details: HCT-116, 24 h, read-out: Activity
[4] = test system: Mus musculus; assay: Hepatotoxicity in immune deficient nude BALB/c mouse xenografted with Bax deficient human HCT116 cells assessed as changes in alanine transaminase level in serum at 5 and 10 mg/kg, ip administered every other day for 2 weeks measured during compound dosing; type: toxicity, organism-based, HCT-116; details: in vivo, 336 h
[5] = Cytotoxicity against human HCT116 cells assessed as reduction in cell viability after 24 hrs by MTT assay; type: functional, cell-based; details: HCT-116, 24 h
[6] = test system: HCT-116; assay: Induction of apoptosis in human HCT116 cells assessed as early apoptotic cells at 5 uM after 24 hrs by Annexin V-FITC/propidium iodide staining based flow cytometry (reference value: 1.06 to 2.2%); type: functional
[7] = test system: HCT-116; assay: Induction of apoptosis in human HCT116 cells assessed as early apoptotic cells at 7.5 uM after 24 hrs by Annexin V-FITC/propidium iodide staining based flow cytometry (reference value: 1.06%); type: functional
[8] = test system: HCT-116; assay: Induction of apoptosis in human HCT116 cells assessed as late apoptotic cells at 10 uM after 24 hrs by Annexin V-FITC/propidium iodide staining based flow cytometry (reference value: 4.54%); type: functional
[9] = test system: HCT-116; assay: Induction of apoptosis in human HCT116 cells assessed as caspase activation at 5 uM after 24 hrs by CaspACEFITC-VAD-FMK staining based flow cytometry (reference value: 7.72%); type: functional
[10] = test system: HCT-116; assay: Induction of apoptosis in human HCT116 cells assessed as increase in total cellular ROS level after 6 hrs by H2DCFDA staining based flow cytometry; type: functional, cell-based
[11] = test system: HCT-116; assay: Induction of apoptosis in human HCT116 cells assessed as increase in mitochondrial superoxide radical after 16 hrs by MitoSOX Red staining based flow cytometry; type: functional, cell-based
[12] = test system: HCT-116; assay: Induction of apoptosis in human HCT116 cells assessed as viable cells at 5 uM after 24 hrs by Annexin V-FITC/propidium iodide staining based flow cytometry in presence of NAC (reference value: 93.64%); type: functional; details: HCT-116, 24 h, read-out: Activity
[13] = test system: HCT-116; assay: Induction of apoptosis in human HCT116 cells assessed as early apoptotic cells at 5 uM after 24 hrs by Annexin V-FITC/propidium iodide staining based flow cytometry in presence of DTT (reference value: 2.2%); type: functional
[14] = test system: HCT-116; assay: Induction of apoptosis in human HCT116 cells assessed as late apoptotic cells at 5 uM after 24 hrs by Annexin V-FITC/propidium iodide staining based flow cytometry in presence of NAC (reference value: 3.73%); type: functional
[15] = test system: HCT-116; assay: Induction of apoptosis in human HCT116 cells assessed as late apoptotic cells at 5 uM after 24 hrs by Annexin V-FITC/propidium iodide staining based flow cytometry in presence of DTT (reference value: 3.73%); type: functional
[16] = test system: HCT-116; assay: Induction of apoptosis in human HCT116 cells assessed as necrotic cells at 5 uM after 24 hrs by Annexin V-FITC/propidium iodide staining based flow cytometry in presence of NAC (reference value: 0.44%); type: functional
[17] = test system: HCT-116; assay: Induction of apoptosis in human HCT116 cells assessed as necrotic cells at 5 uM after 24 hrs by Annexin V-FITC/propidium iodide staining based flow cytometry in presence of DTT (reference value: 0.44%); type: functional
[18] = test system: HCT-116; assay: Induction of apoptosis in Bax deficient human HCT116 cells assessed as late apoptotic cells at 5 uM after 24 hrs by Annexin V-FITC/propidium iodide staining based flow cytometry (reference value: 1.5%); type: functional
[19] = test system: HCT-116; assay: Induction of apoptosis in Bax deficient human HCT116 cells assessed as early apoptotic cells at 20 uM after 24 hrs by Annexin V-FITC/propidium iodide staining based flow cytometry (reference value: 1.13%); type: functional
[20] = test system: HCT-116; assay: Induction of apoptosis in Bax deficient human HCT116 cells assessed as late apoptotic cells at 15 uM after 24 hrs by Annexin V-FITC/propidium iodide staining based flow cytometry in presence of NAC (reference value: 1.56%); type: functional
[21] = test system: HCT-116; assay: Induction of apoptosis in Bax deficient human HCT116 cells after 24 hrs by Annexin V-FITC/propidium iodide staining based flow cytometry; type: functional, cell-based
[22] = test system: HCT-116; assay: Induction of apoptosis in human HCT116 cells assessed as changes in Beclin-1 expression at 5 uM after 4 to 12 hrs by Western blot analysis; type: functional, cell-based
[23] = test system: HCT-116; assay: Induction of apoptosis in human HCT116 cells assessed as increase in ATG5 expression at 5 uM after 4 to 12 hrs by Western blot analysis; type: functional, cell-based
[24] = test system: HCT-116; assay: Induction of apoptosis in human HCT116 cells assessed as ATG5 cleavage at 5 uM after 4 to 12 hrs by Western blot analysis; type: functional, cell-based
[25] = test system: HCT-116; assay: Induction of autophagy in human HCT116 cells assessed as ATG5-ATG12 complex at 5 uM after 4 to 12 hrs by Western blot analysis; type: functional, cell-based
[26] = test system: HCT-116; assay: Induction of apoptosis in ATG5 knockdown human HCT116 cells assessed as late apoptotic cells at 5 uM after 24 hrs by Annexin V-FITC/propidium iodide staining based flow cytometry (reference value: 2.01%); type: functional
[27] = test system: HCT-116; assay: Induction of apoptosis in human HCT116 cells assessed as ATG5 cleavage by Western blot analysis in presence of Z-VAD-FMK; type: functional, cell-based
[28] = Antitumor activity against human HCT116 cells xenografted in immune deficient nude BALB/c mouse assessed as tumor growth inhibition at 10 mg/kg, ip administered every other day for 2 weeks measured after 2 weeks post last dose relative to control; type: functional; details: HCT-116, ip, 336 h, read-out: TGI
[29] = test system: Mus musculus; assay: Toxicity in immune deficient nude BALB/c mouse xenografted with human HCT116 cells assessed as changes in body weight at 5 and 10 mg/kg, ip administered every other day for 2 weeks measured during compound dosing; type: organism-based, HCT-116; details: in vivo, 336 h
[30] = test system: Mus musculus; assay: Hepatotoxicity in immune deficient nude BALB/c mouse xenografted with human HCT116 cells assessed as changes in albumin level in serum at 5 and 10 mg/kg, ip administered every other day for 2 weeks measured during compound dosing; type: toxicity, organism-based, HCT-116; details: in vivo, 336 h
[31] = test system: Mus musculus; assay: Hepatotoxicity in immune deficient nude BALB/c mouse xenografted with Bax deficient human HCT116 cells assessed as changes in albumin level in serum at 5 and 10 mg/kg, ip administered every other day for 2 weeks measured during compound dosing; type: toxicity, organism-based, HCT-116; details: in vivo, 336 h
[32] = test system: Mus musculus; assay: Hepatotoxicity in immune deficient nude BALB/c mouse xenografted with human HCT116 cells assessed as changes in alanine transaminase level in serum at 5 and 10 mg/kg, ip administered every other day for 2 weeks measured during compound dosing; type: toxicity, organism-based, HCT-116; details: in vivo, 336 h

Work on `CO[C@@H]1C(C=O)=CC[C@@H]2C3=C(C(C)C)CC[C@]3(C)CC[C@@]2(C)[C@H]1O` yielded an Activity [1] of 29.02%, an Activity [2] of 47.04% and a viability at 5 µM [3] of 56.3%. The Activity [4] was “Non-toxic”, the IC50 [5] was 9.16 µM and the Activity [6] was 24.72%. The Activity [7] was 51.38%, the Activity [8] was 22.57% and the Activity [9] was 70.08%. For the same compound, the Activity [10] was “Dose-dependent effect”, the Activity [11] was “Dose-dependent effect” and the viability at 5 µM [12] was 91.4%. For the same compound, the Activity [13] was 5.58%, the Activity [14] was 6.46% and the Activity [15] was 13.34%. It also gave an Activity [16] of 0.81%, an Activity [17] of 0.33% and an Activity [18] of 4.14%. For the same compound, the Activity [19] was 56.15%, the Activity [20] was 2.07% and the Activity [21] was “Dose-dependent effect”. The Activity [22] was “inactive”, the Activity [23] was “Active” and the Activity [24] was “Active”. For the same compound, the Activity [25] was “Active”, the Activity [26] was 1.85% and the Activity [27] was “inactive”. The inhibition in vivo at 10 mg/kg [28] was 62.2%, the Activity [29] was “Non-toxic” and the Activity [30] was “Non-toxic”. For the same compound, the Activity [31] was “Non-toxic” and the Activity [32] was “Non-toxic”.
